Experimental data taken from PubChem BioAssay AID1963966 (Molecular Pharmacology Branch, DTP, NCI, 2024).

Test system: 935938-334-R-J1-PDC spheroids with HUVEC/MSC, viability
Test: Anticancer human tumor 935938-334-R-J1-PDC patient-derived small intestine adenocarcinoma cell line growth inhibition [PI3K]
Settings: for IC50: curve of first compound; for viability, T/C: stronger effect = lower value
Procedure, shortened: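 Agents were dosed from a top concentration near clinical Cmax (otherwise 10 microM) in half-log decrements, alone or combined with PI3K inhibitors. The spheroids contain tumor cells plus endothelial (HUVEC) and MSC stroma; viability is measured.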

[1] = second compound 0.0316 µM, first compound 0.0316 µM
[2] = second compound 0.0316 µM, first compound 0.1 µM
[3] = second compound 0.0316 µM, first compound 0.316 µM
[4] = second compound 0.0316 µM, first compound 1 µM
[5] = second compound 0.0316 µM, first compound 3.16 µM
[6] = second compound 0.0316 µM, first compound 10 µM
[7] = second compound 0.1 µM, first compound 0.0316 µM
[8] = second compound 0.1 µM, first compound 0.1 µM
[9] = second compound 0.1 µM, first compound 0.316 µM
[10] = second compound 0.1 µM, first compound 1 µM
[11] = second compound 0.1 µM, first compound 3.16 µM
[12] = second compound 0.1 µM, first compound 10 µM
[13] = second compound 0.316 µM, first compound 0.0316 µM
[14] = second compound 0.316 µM, first compound 0.1 µM
[15] = second compound 0.316 µM, first compound 0.316 µM
[16] = second compound 0.316 µM, first compound 1 µM
[17] = second compound 0.316 µM, first compound 3.16 µM
[18] = second compound 0.316 µM, first compound 10 µM
[19] = second compound 1 µM, first compound 0.0316 µM
[20] = second compound 1 µM, first compound 0.1 µM
[21] = second compound 1 µM, first compound 0.316 µM
[22] = second compound 1 µM, first compound 1 µM
[23] = second compound 1 µM, first compound 3.16 µM
[24] = second compound 1 µM, first compound 10 µM
[25] = second compound 3.16 µM, first compound 0.0316 µM
[26] = second compound 3.16 µM, first compound 0.1 µM
[27] = second compound 3.16 µM, first compound 0.316 µM
[28] = second compound 3.16 µM, first compound 1 µM
[29] = second compound 3.16 µM, first compound 3.16 µM
[30] = second compound 3.16 µM, first compound 10 µM
[31] = second compound 10 µM, first compound 0.0316 µM
[32] = second compound 10 µM, first compound 0.1 µM
[33] = second compound 10 µM, first compound 0.316 µM
[34] = second compound 10 µM, first compound 1 µM
[35] = second compound 10 µM, first compound 3.16 µM
[36] = second compound 10 µM, first compound 10 µM
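Further: compound exposure lasted seven days before viability was read.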
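Wherever viability, T/C is given: percent of vehicle DMSO treated spheroid viability so 100% = untreated.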

C#Cc1c(F)ccc2cc(O)cc(-c3ncc4c(N5CC6CCC(C5)N6)nc(OCC56CCCN5CC(F)C6)nc4c3F)c12 (stereo not given) + CC(Nc1ncnc2nc[nH]c12)c1cc2cccc(Cl)c2c(=O)n1-c1ccccc1
IC50 (second compound 0.0316 µM): 4.52 µM
IC50 (second compound 0.1 µM): 3.15 µM
IC50 (second compound 0.316 µM): 3.98 µM
IC50 (second compound 1 µM): 2.84 µM
IC50 (second compound 3.16 µM): 2.23 µM
IC50 (second compound 10 µM): 0.663 µM
viability, T/C [1]: 83.8%
viability, T/C [2]: 82.3%
viability, T/C [3]: 83.2%
viability, T/C [4]: 65.5%
viability, T/C [5]: 56.8%
viability, T/C [6]: 39%
viability, T/C [7]: 99.4%
viability, T/C [8]: 97%
viability, T/C [9]: 91.9%
viability, T/C [10]: 65.5%
viability, T/C [11]: 53.3%
viability, T/C [12]: 42.9%
viability, T/C [13]: 88.8%
viability, T/C [14]: 103%
viability, T/C [15]: 89.3%
viability, T/C [16]: 74.1%
viability, T/C [17]: 54.3%
viability, T/C [18]: 37.8%
viability, T/C [19]: 76.7%
viability, T/C [20]: 73.2%
viability, T/C [21]: 60.4%
viability, T/C [22]: 52.4%
viability, T/C [23]: 57.4%
viability, T/C [24]: 39.1%
viability, T/C [25]: 82.8%
viability, T/C [26]: 82.8%
viability, T/C [27]: 110%
viability, T/C [28]: 69.8%
viability, T/C [29]: 44.5%
viability, T/C [30]: 30.3%
viability, T/C [31]: 70%
viability, T/C [32]: 73.8%
viability, T/C [33]: 60.4%
viability, T/C [34]: 44.2%
viability, T/C [35]: 36.2%
viability, T/C [36]: 34%

CC1(C)CCC(CN2CCN(c3ccc(C(=O)NS(=O)(=O)c4ccc(NCC5CCOCC5)c([N+](=O)[O-])c4)c(Oc4cnc5[nH]ccc5c4)c3)CC2)=C(c2ccc(Cl)cc2)C1 + CC(Nc1ncnc2nc[nH]c12)c1cc2cccc(Cl)c2c(=O)n1-c1ccccc1
IC50 (second compound 0.0316 µM): 6.28 µM
IC50 (second compound 0.1 µM): 6.66 µM
IC50 (second compound 0.316 µM): 6.04 µM
IC50 (second compound 1 µM): 6.82 µM
IC50 (second compound 3.16 µM): 6.73 µM
IC50 (second compound 10 µM): 5.59 µM
viability, T/C [1]: 98.3%
viability, T/C [2]: 93.6%
viability, T/C [3]: 90.8%
viability, T/C [4]: 88.8%
viability, T/C [5]: 89%
viability, T/C [6]: 23.5%
viability, T/C [7]: 98.2%
viability, T/C [8]: 104%
viability, T/C [9]: 94.3%
viability, T/C [10]: 105%
viability, T/C [11]: 95.1%
viability, T/C [12]: 25.2%
viability, T/C [13]: 104%
viability, T/C [14]: 98.9%
viability, T/C [15]: 105%
viability, T/C [16]: 93.8%
viability, T/C [17]: 86.7%
viability, T/C [18]: 22.3%
viability, T/C [19]: 80.7%
viability, T/C [20]: 94.1%
viability, T/C [21]: 69.1%
viability, T/C [22]: 102%
viability, T/C [23]: 92.7%
viability, T/C [24]: 31.2%
viability, T/C [25]: 92.6%
viability, T/C [26]: 89.2%
viability, T/C [27]: 87.1%
viability, T/C [28]: 93.2%
viability, T/C [29]: 92.5%
viability, T/C [30]: 28.4%
viability, T/C [31]: 81.7%
viability, T/C [32]: 61.5%
viability, T/C [33]: 91.2%
viability, T/C [34]: 86.5%
viability, T/C [35]: 73.4%
viability, T/C [36]: 26.1%

CNC(=O)c1ccc(N2C(=S)N(c3ccc(C#N)c(C(F)(F)F)c3)C(=O)C2(C)C)cc1F + CC(Nc1ccc2c(c1)OCCn1cc(N3C(=O)OCC3C(F)F)nc1-2)C(N)=O
IC50 (second compound 0.00316 µM): > 10 µM
IC50 (second compound 0.01 µM): > 10 µM
IC50 (second compound 0.0316 µM): > 10 µM
IC50 (second compound 0.1 µM): > 10 µM
IC50 (second compound 0.316 µM): > 10 µM
IC50 (second compound 1 µM): 3.16 µM
viability, T/C (second compound 0.00316 µM, first compound 0.0316 µM): 99.4%
viability, T/C (second compound 0.00316 µM, first compound 0.1 µM): 108%
viability, T/C (second compound 0.00316 µM, first compound 0.316 µM): 99.5%
viability, T/C (second compound 0.00316 µM, first compound 1 µM): 102%
viability, T/C (second compound 0.00316 µM, first compound 3.16 µM): 97.1%
viability, T/C (second compound 0.00316 µM, first compound 10 µM): 86%
viability, T/C (second compound 0.01 µM, first compound 0.0316 µM): 99.9%
viability, T/C (second compound 0.01 µM, first compound 0.1 µM): 89.9%
viability, T/C (second compound 0.01 µM, first compound 0.316 µM): 108%
viability, T/C (second compound 0.01 µM, first compound 1 µM): 78.3%
viability, T/C (second compound 0.01 µM, first compound 3.16 µM): 102%
viability, T/C (second compound 0.01 µM, first compound 10 µM): 97.6%
viability, T/C [1]: 102%
viability, T/C [2]: 95.6%
viability, T/C [3]: 90.7%
viability, T/C [4]: 110%
viability, T/C [5]: 97.8%
viability, T/C [6]: 86.3%
viability, T/C [7]: 80.4%
viability, T/C [8]: 99.4%
viability, T/C [9]: 90.3%
viability, T/C [10]: 93.8%
viability, T/C [11]: 79.2%
viability, T/C [12]: 105%
viability, T/C [13]: 86.9%
viability, T/C [14]: 72.7%
viability, T/C [15]: 73.7%
viability, T/C [16]: 83.1%
viability, T/C [17]: 82.4%
viability, T/C [18]: 64.7%
viability, T/C [19]: 61.6%
viability, T/C [20]: 66.5%
viability, T/C [21]: 72.7%
viability, T/C [22]: 43.7%
viability, T/C [23]: 61.5%
viability, T/C [24]: 53.3%

CC(Cn1ccc(-c2ccc(C#N)c(Cl)c2)n1)NC(=O)c1cc(C(C)O)[nH]n1 (stereo not given) + CC(Nc1ncnc2nc[nH]c12)c1cc2cccc(Cl)c2c(=O)n1-c1ccccc1
IC50 (second compound 0.0316 µM): > 10 µM
IC50 (second compound 0.1 µM): > 10 µM
IC50 (second compound 0.316 µM): > 10 µM
IC50 (second compound 1 µM): > 10 µM
IC50 (second compound 3.16 µM): > 10 µM
IC50 (second compound 10 µM): > 10 µM
viability, T/C [1]: 98.6%
viability, T/C [2]: 93.4%
viability, T/C [3]: 97.3%
viability, T/C [4]: 111%
viability, T/C [5]: 117%
viability, T/C [6]: 108%
viability, T/C [7]: 124%
viability, T/C [8]: 85.2%
viability, T/C [9]: 88.7%
viability, T/C [10]: 99%
viability, T/C [11]: 93.9%
viability, T/C [12]: 113%
viability, T/C [13]: 94.3%
viability, T/C [14]: 116%
viability, T/C [15]: 116%
viability, T/C [16]: 98.2%
viability, T/C [17]: 74.5%
viability, T/C [18]: 102%
viability, T/C [19]: 110%
viability, T/C [20]: 105%
viability, T/C [21]: 128%
viability, T/C [22]: 102%
viability, T/C [23]: 103%
viability, T/C [24]: 96%
viability, T/C [25]: 94.5%
viability, T/C [26]: 77.3%
viability, T/C [27]: 105%
viability, T/C [28]: 91.2%
viability, T/C [29]: 94.6%
viability, T/C [30]: 104%
viability, T/C [31]: 79.7%
viability, T/C [32]: 69.8%
viability, T/C [33]: 82%
viability, T/C [34]: 68.4%
viability, T/C [35]: 87.6%
viability, T/C [36]: 97.8%

Cn1ncc(Cl)c1-c1cc(C(=O)NC(CN)Cc2cccc(F)c2)sc1Cl (stereo not given) + Cc1nc(NC(=O)N2CCCC2C(N)=O)sc1-c1ccnc(C(C)(C)C(F)(F)F)c1
IC50 (second compound 0.0316 µM): 3.01 µM
IC50 (second compound 0.1 µM): 0.743 µM
IC50 (second compound 0.316 µM): 0.776 µM
IC50 (second compound 1 µM): 0.266 µM
IC50 (second compound 3.16 µM): 0.144 µM
IC50 (second compound 10 µM): < 0.0316 µM
viability, T/C [1]: 83.4%
viability, T/C [2]: 87.5%
viability, T/C [3]: 61.9%
viability, T/C [4]: 67.4%
viability, T/C [5]: 38.1%
viability, T/C [6]: 52.8%
viability, T/C [7]: 100%
viability, T/C [8]: 77.2%
viability, T/C [9]: 60.4%
viability, T/C [10]: 45.9%
viability, T/C [11]: 37%
viability, T/C [12]: 24.3%
viability, T/C [13]: 90.7%
viability, T/C [14]: 67.3%
viability, T/C [15]: 60.6%
viability, T/C [16]: 45.1%
viability, T/C [17]: 43.3%
viability, T/C [18]: 26.8%
viability, T/C [19]: 48.2%
viability, T/C [20]: 62.4%
viability, T/C [21]: 42.6%
viability, T/C [22]: 46.9%
viability, T/C [23]: 35.7%
viability, T/C [24]: 23.8%
viability, T/C [25]: 53.5%
viability, T/C [26]: 62.5%
viability, T/C [27]: 34.4%
viability, T/C [28]: 38%
viability, T/C [29]: 27.1%
viability, T/C [30]: 22.4%
viability, T/C [31]: 37.9%
viability, T/C [32]: 35.8%
viability, T/C [33]: 39.2%
viability, T/C [34]: 39%
viability, T/C [35]: 28.1%
viability, T/C [36]: 26.7%
